# Experimental data from US20060062859A1, “Composition and method to optimize and customize nutritional supplement formulations by measuring genetic and metabolomic contributing factors to disease diagnosis, stratification, prognosis, metabolism, and therapeutic outcomes” (priority 2004, published 2006).
# Where two headings read alike, the source gives them in different places. Where no end group is shown, it is not given here.
# How the values were obtained:
# [1] = Compliance with Trexan after rapid detoxification of methadone patients; assay type: in vivo, human; settings: P<0.0001
# Description: Over the last decade, a new rapid method to detoxify either methadone or heroin addicts utilizing TrexanR sparked interest in many treatment centers throughout the United States, Canada, as well as many countries on a worldwide basis. […] It may also be interesting too further test this hypothesis with the sublingual combination of the partial opiate mu receptor agonist buprenorphrine. The ingredients tested included DL-phenylalanine (2760 mg/day), L-Glutamine (150 mg/day), chromium picolinate (360 micrograms/day), pyridoxal-5-phosphate (30 mg/day). • Most recently a study was performed by Julia Ross best selling author of The Diet Cure (Viking Press USA, 1999; Penguin UK, Au, and USA, 2000), in an outpatient clinic in Mill Valley, Calif. involving amino-acid therapy and enkephalinase inhibition based on Blum's work. […]
# [2] = Enkephalinase inhibitors in mice: brain enkephalins and alcohol preference; assay type: in vivo; settings: for alcohol preference: acceptance and 14 day preference test; for brain enkephalins: d-phenylalanine 500 mg/kg/day 18 days, metabolite 25 micrograms i.c.v.
# [3] = test system: release of serotonin; settings: long lasting and dose dependent; cited from earlier work
# [4] = cited from earlier work
# [5] = test system: synaptosomal dopamine; settings: cited from earlier work
# [6] = in vivo; cited from earlier work
# [7] = test system: brain dopamine and serotonin flux; settings: cited from earlier work
# [8] = cited from earlier work; for OA pain / joint function: people with OA
# [9] = injections; cited from earlier work
# [10] = repeated stress; cited from earlier work
# [11] = VTA / midbrain dopamine neurons; cited from earlier work
# [12] = biological target: T1, insulin receptor (IR) (Mus musculus, UniProt P15208); settings: cited from earlier work
# T1 construct: endogenous in cells; study cited from the literature
# T1 sequence (P15208 28-748 limits assumed): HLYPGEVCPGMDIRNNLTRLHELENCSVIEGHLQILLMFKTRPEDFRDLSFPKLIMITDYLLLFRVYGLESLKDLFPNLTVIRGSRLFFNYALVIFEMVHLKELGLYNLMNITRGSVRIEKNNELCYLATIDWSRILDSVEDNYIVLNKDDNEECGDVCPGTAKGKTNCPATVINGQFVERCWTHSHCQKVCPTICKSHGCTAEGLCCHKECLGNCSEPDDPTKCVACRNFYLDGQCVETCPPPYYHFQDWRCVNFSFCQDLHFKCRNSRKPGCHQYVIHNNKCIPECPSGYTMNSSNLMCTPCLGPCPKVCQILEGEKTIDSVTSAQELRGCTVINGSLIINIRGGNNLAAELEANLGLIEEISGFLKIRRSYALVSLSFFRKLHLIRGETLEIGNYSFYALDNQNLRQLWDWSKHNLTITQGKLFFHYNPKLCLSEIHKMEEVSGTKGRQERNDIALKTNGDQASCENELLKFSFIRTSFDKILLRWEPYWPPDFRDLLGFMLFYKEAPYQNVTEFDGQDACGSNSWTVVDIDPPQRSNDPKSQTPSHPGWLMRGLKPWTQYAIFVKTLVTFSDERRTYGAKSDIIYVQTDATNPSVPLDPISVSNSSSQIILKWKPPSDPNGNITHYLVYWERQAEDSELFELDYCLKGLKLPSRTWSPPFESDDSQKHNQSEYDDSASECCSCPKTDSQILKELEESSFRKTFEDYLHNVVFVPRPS
# T1 sequence (P15208 753-1372 limits assumed): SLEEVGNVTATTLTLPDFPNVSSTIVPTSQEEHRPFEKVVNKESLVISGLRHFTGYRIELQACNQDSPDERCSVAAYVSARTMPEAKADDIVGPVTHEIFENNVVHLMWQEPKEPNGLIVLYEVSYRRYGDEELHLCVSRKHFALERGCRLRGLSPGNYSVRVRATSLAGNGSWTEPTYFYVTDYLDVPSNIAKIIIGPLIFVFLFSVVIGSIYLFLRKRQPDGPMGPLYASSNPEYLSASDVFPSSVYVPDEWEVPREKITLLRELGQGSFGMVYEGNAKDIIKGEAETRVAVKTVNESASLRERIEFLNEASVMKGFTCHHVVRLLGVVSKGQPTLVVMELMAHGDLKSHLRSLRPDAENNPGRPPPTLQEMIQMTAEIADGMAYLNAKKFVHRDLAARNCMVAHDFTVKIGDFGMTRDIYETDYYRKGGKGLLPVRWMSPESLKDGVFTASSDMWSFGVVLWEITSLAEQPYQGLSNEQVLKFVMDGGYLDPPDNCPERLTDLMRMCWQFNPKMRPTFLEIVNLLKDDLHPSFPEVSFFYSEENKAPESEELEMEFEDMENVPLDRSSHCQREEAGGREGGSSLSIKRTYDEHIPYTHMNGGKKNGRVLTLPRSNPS
# [13] = test system: sweet and bitter receptors on the tongue; settings: in vivo; cited from earlier work
# [14] = in vivo; cited from earlier work; remark: listed apart in the source
# [15] = 2 g of HCA; fasting and fed subjects; cited from earlier work
# [16] = 1320 mg/day, eight weeks, 1200 kcal/day; cited from earlier work
# [17] = HCA 440 mg t.i.d. eight weeks (Thom); set-up: species or system human; settings: in vivo
# Description: The Thom study indicates a dosage level of 440 mg of HCA (as opposed to GcE) t.i.d. (1320 mg/day) for eight weeks. […] The mean “weight loss” in the HCA group was 6.4 kg, 1.68 times greater than placebo. […] The GcE was taken in conjunction with 1200 mg L-Carnitine and 600 mcg chromium (from picolinate) and compared to placebo in 186 subjects (200 began the study) for 4 weeks. All participants were supposed to engage in an exercise regimen calibrated to personal needs. Loss of body fat in the treatment group averaged 1.29 kg compared to 0.64 kg in the placebo ([…]. The Girola study investigated the effects of chitosan, combined with a low amount of GcE, making a comparative evaluation impossible. In fact, variables in the studies noted, and others not mentioned, make conclusions about the efficacy of GcE for “weight loss” extremely difficult.
# [18] = biological target: T2, ATP-citrate lyase (Homo sapiens, UniProt P53396); settings: cited from earlier work
# T2 sequence (P53396 1-1101): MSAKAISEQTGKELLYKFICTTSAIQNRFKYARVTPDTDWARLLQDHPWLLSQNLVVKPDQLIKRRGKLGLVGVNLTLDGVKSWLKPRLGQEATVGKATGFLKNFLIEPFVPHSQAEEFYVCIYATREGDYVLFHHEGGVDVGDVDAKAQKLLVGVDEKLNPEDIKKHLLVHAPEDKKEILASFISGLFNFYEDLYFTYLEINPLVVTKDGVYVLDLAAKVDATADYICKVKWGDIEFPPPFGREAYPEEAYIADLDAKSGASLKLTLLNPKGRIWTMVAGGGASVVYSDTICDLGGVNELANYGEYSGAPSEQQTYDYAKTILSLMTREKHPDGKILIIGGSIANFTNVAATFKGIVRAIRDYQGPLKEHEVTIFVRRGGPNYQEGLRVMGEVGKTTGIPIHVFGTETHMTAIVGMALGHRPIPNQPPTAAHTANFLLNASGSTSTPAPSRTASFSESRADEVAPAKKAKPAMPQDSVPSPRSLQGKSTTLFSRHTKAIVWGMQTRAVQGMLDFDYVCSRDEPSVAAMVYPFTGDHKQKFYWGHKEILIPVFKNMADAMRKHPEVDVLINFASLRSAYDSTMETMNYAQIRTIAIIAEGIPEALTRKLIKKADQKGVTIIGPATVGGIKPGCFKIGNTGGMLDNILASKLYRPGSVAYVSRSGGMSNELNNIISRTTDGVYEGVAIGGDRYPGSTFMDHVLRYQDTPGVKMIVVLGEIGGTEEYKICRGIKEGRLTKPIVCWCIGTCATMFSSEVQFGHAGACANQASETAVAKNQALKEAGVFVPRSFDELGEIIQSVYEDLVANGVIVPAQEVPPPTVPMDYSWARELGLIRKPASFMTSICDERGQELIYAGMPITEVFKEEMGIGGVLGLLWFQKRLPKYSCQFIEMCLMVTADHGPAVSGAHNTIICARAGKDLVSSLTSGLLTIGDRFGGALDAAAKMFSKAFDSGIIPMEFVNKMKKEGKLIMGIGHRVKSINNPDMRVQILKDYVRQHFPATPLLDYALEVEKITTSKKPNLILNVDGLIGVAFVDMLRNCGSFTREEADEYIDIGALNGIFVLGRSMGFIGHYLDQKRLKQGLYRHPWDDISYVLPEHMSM
# [19] = 3.0 g/day for 3 days; fasting state, rest or moderate exercise; cited from earlier work
# [20] = 2 weeks; cited from earlier work
# [21] = cited from earlier work; remark: listed apart in the source
# [22] = direct microinjection; cited from earlier work
# [23] = biological target: T3, D2 receptors in the Nacc (Rattus norvegicus, UniProt P61169); settings: bilateral, nmol/side; cited from earlier work
# T3 construct: from tissue; host or cells: nucleus accumbens in vivo; study cited from the literature
# T3 sequence (P61169 whole entry): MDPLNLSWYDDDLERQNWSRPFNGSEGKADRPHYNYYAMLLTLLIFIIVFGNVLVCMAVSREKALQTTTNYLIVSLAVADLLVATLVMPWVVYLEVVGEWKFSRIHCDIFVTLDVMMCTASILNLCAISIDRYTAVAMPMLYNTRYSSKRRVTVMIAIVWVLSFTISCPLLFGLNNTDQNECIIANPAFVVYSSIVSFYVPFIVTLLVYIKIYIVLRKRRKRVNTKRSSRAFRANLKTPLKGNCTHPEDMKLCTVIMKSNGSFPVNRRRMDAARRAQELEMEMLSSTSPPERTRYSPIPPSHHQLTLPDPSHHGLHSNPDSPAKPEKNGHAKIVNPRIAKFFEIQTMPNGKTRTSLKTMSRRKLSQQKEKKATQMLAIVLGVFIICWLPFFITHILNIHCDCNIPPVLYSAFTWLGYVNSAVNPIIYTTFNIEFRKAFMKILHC
# [24] = double-blind placebo controlled; cited from earlier work
# [25] = chronic treatment; cited from earlier work
compound,measurement,setting,value
O=C1CC[C@@]2(O)[C@H]3Cc4ccc(O)c5c4[C@@]2(CCN3CC2CC2)[C@H]1O5 [Trexan],average number of days of compliance,[1],37 days
N[C@H](Cc1ccccc1)C(=O)O [d-phenylalanine],alcohol preference,[2],significantly reduced
same,brain enkephalins,[2],brain changes of the enkephalins
"N[C@@H](Cc1c[nH]c2ccc(O)cc12)C(=O)O [5-HTP, 5-hydroxy-l-tryptophan]",5-HT in dialysates,[3],immediate increase
[Ca+2] [calcium],lower body weight per 300 mg increment of regular intake,[4]; adults,2.5 to 3.0 kg
same,weight loss compared to the placebo group,[4]; approximately 4 years of observation,significant weight loss
same,less body fat per 300 mg increment of regular intake,[4]; children,about 1 kg
same,reduction of prevalence of overweight and obesity (estimate),[4]; increased intake,60-80%
CN1[C@@H]2CC[C@H]1C[C@@H](OC(c1ccccc1)c1ccccc1)C2 [Cogentin],release of dopamine formed from 14C-phenylalanine,[5],increased
CCn1cc(C(=O)O)c(=O)c2ccc(Cc3ccccc3)nc21 [Amfoelic acid],release of dopamine formed from 14C-phenylalanine,[5],net release
"O=S(=O)([O-])[O-].[O]=[V+2] [vanadyl, Vanadyl sulfate]",blood sugar levels,[6],very effective in normalizing blood sugar levels
CC(C)CC(N(C)C)C1(c2ccc(Cl)cc2)CCC1 (centres unmarked) [Sibutramine],serotonin and dopamine concentrations in striatal and hypothalamic brain regions,[7]; higher doses,increased
same,serotonin and dopamine concentrations in dialysates,[7]; low doses,no effect
CC(N)Cc1ccccc1 (centres unmarked) [Amphetamine],release of dopamine formed from 14C-phenylalanine,[5],increased
"C[S+](CC[C@H](N)C(=O)[O-])C[C@H]1O[C@@H](n2cnc3c(N)ncnc32)[C@H](O)[C@@H]1O (stereo partly drawn) [SAM-e, S-adenosyl-L-methionine]",OA pain / joint function,[8],equal to NSAIDs
"NC(Cc1ccc(Cl)cc1)C(=O)O (centres unmarked) [Para-Chlora-Phenylalanine (PCA), Para-Chlora-Phenylalanine]",induction of stress,[9],attenuated
N[C@H]1C(O)O[C@H](CO)[C@@H](O)[C@@H]1O (some centres unmarked) [glucosamine],progression of the disease,"[8]; knee OA, three years","slowed, if not stopped"
N[C@@H](Cc1c[nH]c2ccccc12)C(=O)O [tryptophan],development of hyperalgesia,[10],blocks
"substance P (RPKPQQFFGLM; ends and bridges not checked; UniProt P20366 58-68, looked up) [SP, tachykinin neuropeptide, substance P]",tonic pain / analgesia in the formalin test,[11],inhibit tonic pain
O=C(OC[C@H]1O[C@@H](OC(=O)c2cc(O)c(O)c(OC(=O)c3cc(O)c(O)c(O)c3)c2)[C@H](OC(=O)c2cc(O)c(O)c(OC(=O)c3cc(O)c(O)c(O)c3)c2)[C@@H](OC(=O)c2cc(O)c(O)c(OC(=O)c3cc(O)c(O)c(O)c3)c2)[C@@H]1OC(=O)c1cc(O)c(O)c(OC(=O)c2cc(O)c(O)c(O)c2)c1)c1cc(O)c(O)c(OC(=O)c2cc(O)c(O)c(O)c2)c1 [Tannic Acid],expression of key genes for adipogenesis (PPAR-gamma 2; c-fos; c-jun and c-myc),[12],inhibit
same,phosphorylation of the insulin receptor (IR),[12],induces phosphorylation
same,translocation of the glucose transporter (GLUT 4),[12],translocation
gurmarin,sweet taste of glucose and sucrose,[13],block
"O=C(O)CC(O)(C(=O)O)C(O)C(=O)O (stereo not drawn) [HCA, (−)—Hydroxycitric acid]",satiety,[14],no observable effects
same,time to peak plasma levels,[15],approximately 2 hours
same,mean weight loss,[16],6.4 kg
same,weight loss relative to placebo,[17],1.68 times greater than placebo
same,inhibition of ATP-citrate lyase,[18],competitively inhibit
same,inhibition of ATP-citrate lyase,[18]; listed as FCA,competitive inhibitor
same,short-term rate of fat oxidation,[19],did not alter
same,satiety and energy intake compared to placebo,[20],did not increase satiety or effect energy intake
"O=C(O)CCc1ccccc1 [hydrocunnamic acid, reference compound]",alcohol preference,[2],significantly reduced
same,brain enkephalins,[2],brain changes of the enkephalins
CNCCC(Oc1ccc(C(F)(F)F)cc1)c1ccccc1 (centres unmarked) [fluoxitine],development of hyperalgesia,[10],blocks
same,ingestion of saccharin solutions,[21]; normal rats,suppresses
CCCN1CCc2cccc3c2[C@H]1Cc1ccc(O)c(O)c1-3 [n-propylnor-apomorphine],symptoms after withdrawal of opiates,[22],significantly suppresses
Oc1cc2c(cc1O)C(c1ccccc1)CNCC2 (centres unmarked) [SKF 38393],persistent phase of formalin-induced nociception,[23],without effect
CCN1CCC[C@H]1CNC(=O)c1c(O)c(Cl)cc(Cl)c1OC [raclopride],persistent phase of formalin-induced nociception,[23],blocked
CN(C)CCCN1c2ccccc2CCc2ccc(Cl)cc21 [clomipramine],development of hyperalgesia,[10],blocks
CHONDROITIN SULFATE,OA pain / joint function,[8],significant improvement in pain and inflammation and improved joint function
NC(Cc1ccccc1)C(=O)O (racemic) [dl-phenylalanine],psychosocial stress as measured by SCL,[24],reduces stress
CN1CC[C@]23c4c5ccc(O)c4O[C@H]2[C@@H](O)C=C[C@H]3[C@H]1C5 [morphine],tonic pain / analgesia in the formalin test,[11],induces analgesia
same,food intake,[25],decreased food intake
CCN[C@@H](C)Cc1cccc(C(F)(F)F)c1 [d-fenfluramine],consumption of a sucrose solution,[21]; non-deprived rats,reduced
